Test results as given in patent US20230123334A1, “AMINO LIPID COMPOUND, PREPARATION METHOD THEREFOR, AND APPLICATION THEREOF” (SHENZHEN SHENXIN BIOTECHNOLOGY CO., LTD., priority 2020, published 2023).

Columns and labels:
Format in all cases: cell-based
HEK293 cells [1] = test: Preliminary screening as DNA vectors, GFP transfection of HEK293 cells; conditions: HEK293 cells; lipid/DOPE liposome with 75 ng plasmid DNA (psin-EGFP-IRES-Puro); number of cells expressing GFP divided by total number of nuclei (Hoechst)
In short: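 First, amino lipid and DOPE were vortexed in sodium acetate buffer (pH 5.6) to form liposomes. Next, these were held with 75 ng EGFP plasmid at room temperature for 30 min. Finally, HEK293 cells were added, cultured at 37° C., Hoechst-stained, and GFP+/total nuclei scored by imaging.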

HEK293 cells [2] = test: Preliminary screening as mRNA vectors, EGFP mRNA transfection of HEK293 cells; conditions: HEK293 cells, 96-well plates, EGFP mRNA 50 ng per well; percentage of GFP fluorescent cells relative to total number of cells (Hoechst)
In short: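 Screening format: EGFP mRNA transfection (50 ng/well) into HEK293 in 10% FBS-supplemented DMEM. Percent green fluorescent cells, normalised to Hoechst nuclear count, gave the value; Lipofectamine2000 was the reference transfectant.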

Hela cells [3] = test: Transfection of Hela cell line, DNA vectors; conditions: 75 ng plasmid DNA, GFP cells / total cells
In short: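 Amino lipid/DOPE liposomes in sodium acetate pH 5.6 were complexed with 75 ng psin-EGFP-IRES-Puro plasmid for 30 min at room temperature, then mixed with 3-5×10^4 Hela cells in DMEM/10% FBS at 37° C. Hoechst stain after 20-24 h, imaging after a further 20-24 h. Efficiency = GFP-positive cells / total nuclei.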

Hela cells [4] = test: Transfection of Hela cell line, mRNA vectors; conditions: 50 ng EGFP mRNA per well
In short: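 HeLa cells in DMEM with 10% FBS transfected with 50 ng EGFP mRNA per well. Readout is percentage of GFP-positive cells among total cells counted by Hoechst nuclear stain; Lipofectamine2000 served as positive control.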

MCF7 cells [5] = test: Transfection of MCF7 cell line, DNA vectors; parameters: concentration or dose not given beside the values; conditions: plasmid DNA, GFP cells / total cells
In short: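 MCF7 cells in DMEM with fetal bovine serum were transfected in 96-well format. Read-out was the percentage of GFP-fluorescent cells among total cells counted by Hoechst nuclear stain. Lipofectamine2000 served as positive control.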

MCF7 cells [6] = test: Transfection of MCF7 cell line, mRNA vectors; conditions: 50 ng EGFP mRNA per well
In short: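 MCF7 cells in DMEM with fetal bovine serum were transfected with 50 ng EGFP mRNA per well. Read-out was the percentage of GFP-positive cells among total Hoechst-stained nuclei, with Lipofectamine2000 as positive control.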

[7] = test system: embryonic stem cells (hESC2); test: Screening as DNA vectors in embryonic stem cells, flow cytometry; conditions: 75 ng plasmid DNA, 48 hours after transfection, flow cytometer
In short: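 hESC2 cells in mTeSR1 on matrigel transfected with 75 ng pSin-EGFP-IRES-Puro complexed with amino lipid/DOPE liposomes formed in sodium acetate pH 5.6; 37 °C, 5% CO2. After 48 h, GFP-positive cells counted by flow cytometry (≥2000 cells), efficiency also expressed relative to Lipofectamine Stem.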

[8] = test system: embryonic stem cells (hESC2); test: Screening as mRNA vectors in embryonic stem cells; conditions: 50 ng EGFP mRNA per well
In short: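 EGFP mRNA (50 ng per well) transfected into hESC2 cells grown in mTeSR1; Lipofectamine Stem served as positive control. Read-out: GFP-fluorescent cells as percentage of total cells.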

cardiomyocytes [9] = test: Screening as DNA vectors in cardiomyocytes; parameters: concentration or dose not given beside the values; conditions: method as Example 4
In short: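 hESC-derived cardiomyocytes in DMEM with 10% FBS were transfected with a GFP DNA vector; Lipofectamine Stem served as positive control. Read-out: percentage of GFP-positive cells relative to total cells counted by Hoechst nuclear stain.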

cardiomyocytes [10] = test: Screening as mRNA vectors in cardiomyocytes; conditions: 50 ng EGFP mRNA per well
In short: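 Cardiomyocytes differentiated from hESC, in DMEM with 10% FBS, were transfected with 50 ng EGFP mRNA per well. The read-out was GFP-positive cells as a percentage of Hoechst-stained nuclei, with Lipofectamine Stem as positive control.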

| SMILES | Absolute DNA transfection efficiency in HEK293 cells (HEK293 cells [1]) | Absolute mRNA transfection efficiency in HEK293 cells (HEK293 cells [2]) | Absolute DNA transfection efficiency in Hela cells (Hela cells [3]) | Absolute mRNA transfection efficiency in Hela cells (Hela cells [4]) | Absolute DNA transfection efficiency in MCF7 cells (MCF7 cells [5]) | Absolute mRNA transfection efficiency in MCF7 cells (MCF7 cells [6]) | Absolute DNA transfection efficiency in embryonic stem cells [7] | Absolute mRNA transfection efficiency in embryonic stem cells [8] | Absolute DNA transfection efficiency in cardiomyocytes (cardiomyocytes [9]) | Absolute mRNA transfection efficiency in cardiomyocytes (cardiomyocytes [10]) |
| --- | --- | --- | --- | --- | --- | --- | --- | --- | --- | --- |
| CCCCCCCCCCCCCCCSc1nc(NCCN2CCN(C)CC2)nc(SCCCCCCCCC)n1 [Compound S9S15D5] | 8.9% | 41.3% | 4.4% | 4.4% | 23.0% | 27.0% | 6.2% | 33.4% | 12.8% | 1.9% |
| CCCCCCCCCCCCCCSc1nc(NCCCN(C)C)nc(SCCCCCCCCC)n1 [Compound S9S14D6] | 19.2% | 80.0% | 9.6% | 9.6% | 44.4% | 12.2% | 2.0% | 1.7% | 10.5% | 8.5% |
| CCCCCCCCCCCCSc1nc(NCCCN2CCN(C)CC2)nc(SCCCCCCCCC)n1 [Compound S9S12D9] | 39.3% | 60.9% | 19.6% | 19.6% | 33.8% | 5.1% | 7.6% | 20.6% | 5.9% | 69.3% |
| CCCCCCCCCCCCCCSc1nc(NCCCN2CCN(C)CC2)nc(SCCCCCCCCC)n1 [Compound S9S14D9] | 28.4% | 68.8% | 14.8% | 14.8% | 38.2% | 19.1% | 2.5% | 16.4% | 11.1% | 12.4% |
| CCCCCCCCCCCNc1nc(NCCN2CCN(C)CC2)nc(SCCCCCCCC)n1 [Compound S8N11D5] | – | – | 26.5% | 26.5% | 16.7% | 9.1% | 1.1% | 1.6% | 3.0% | 3.7% |
| CCCCCCCCCCCNc1nc(NCC2CCN(C)CC2)nc(SCCCCCCCCC)n1 [Compound S9N11D10] | – | – | 21.2% | 21.3% | 36.6% | 20.2% | 2.2% | 2.6% | 2.7% | 45.3% |
| CCCCCCCCCCCNc1nc(NCCCN2CCN(C)CC2)nc(SCCCCCCCCC)n1 [Compound S9N11D9] | – | – | 24.3% | 24.6% | 27.3% | 11.8% | 6.6% | 2.9% | 1.1% | 45.4% |
